In BindingDB's records for doi:10.1016/s0891-0618(03)00032-2 (University of Michigan, 2003):

Experiments:
[1] = target: Delta-type opioid receptor (Rattus norvegicus, UniProt P33533)
[2] = target: Kappa-type opioid receptor (Rattus norvegicus, UniProt P34975)
Mu-type opioid receptor = Mu-type opioid receptor (Rattus norvegicus, UniProt P33535)
Nociceptin receptor = Nociceptin receptor (Rattus norvegicus, UniProt P35370)
Nociceptin receptor, sequence (P35370 whole entry): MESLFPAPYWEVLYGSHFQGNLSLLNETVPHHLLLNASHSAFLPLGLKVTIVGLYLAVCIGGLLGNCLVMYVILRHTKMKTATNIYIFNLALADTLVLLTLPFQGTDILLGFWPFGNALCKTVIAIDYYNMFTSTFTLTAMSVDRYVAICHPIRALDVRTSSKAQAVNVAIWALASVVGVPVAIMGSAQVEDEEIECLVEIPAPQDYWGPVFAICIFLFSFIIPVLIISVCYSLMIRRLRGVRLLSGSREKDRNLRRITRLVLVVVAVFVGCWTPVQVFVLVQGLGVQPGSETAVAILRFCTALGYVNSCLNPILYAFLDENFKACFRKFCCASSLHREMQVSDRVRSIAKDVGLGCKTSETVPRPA

Delta-type opioid receptor, sequence (P33533 whole entry): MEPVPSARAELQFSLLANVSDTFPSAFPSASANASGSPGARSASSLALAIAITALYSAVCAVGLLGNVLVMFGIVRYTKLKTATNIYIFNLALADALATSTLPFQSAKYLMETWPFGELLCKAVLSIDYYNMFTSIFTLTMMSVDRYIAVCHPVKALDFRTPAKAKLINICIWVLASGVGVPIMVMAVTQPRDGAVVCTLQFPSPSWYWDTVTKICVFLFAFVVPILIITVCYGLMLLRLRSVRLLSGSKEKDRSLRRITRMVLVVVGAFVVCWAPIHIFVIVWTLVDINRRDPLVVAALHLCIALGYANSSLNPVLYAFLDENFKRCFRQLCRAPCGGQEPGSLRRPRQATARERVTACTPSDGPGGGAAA
Mu-type opioid receptor, sequence (P33535 whole entry): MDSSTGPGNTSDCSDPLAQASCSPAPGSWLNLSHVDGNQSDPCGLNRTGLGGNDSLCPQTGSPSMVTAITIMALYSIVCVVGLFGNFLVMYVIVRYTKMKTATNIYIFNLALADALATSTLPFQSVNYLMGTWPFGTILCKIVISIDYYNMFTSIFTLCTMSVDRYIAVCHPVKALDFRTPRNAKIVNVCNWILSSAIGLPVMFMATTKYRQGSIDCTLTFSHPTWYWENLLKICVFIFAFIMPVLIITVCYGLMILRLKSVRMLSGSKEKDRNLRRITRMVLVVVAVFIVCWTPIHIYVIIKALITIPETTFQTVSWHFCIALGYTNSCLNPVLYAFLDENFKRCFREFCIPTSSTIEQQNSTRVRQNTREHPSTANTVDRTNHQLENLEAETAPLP
Kappa-type opioid receptor, sequence (P34975 whole entry): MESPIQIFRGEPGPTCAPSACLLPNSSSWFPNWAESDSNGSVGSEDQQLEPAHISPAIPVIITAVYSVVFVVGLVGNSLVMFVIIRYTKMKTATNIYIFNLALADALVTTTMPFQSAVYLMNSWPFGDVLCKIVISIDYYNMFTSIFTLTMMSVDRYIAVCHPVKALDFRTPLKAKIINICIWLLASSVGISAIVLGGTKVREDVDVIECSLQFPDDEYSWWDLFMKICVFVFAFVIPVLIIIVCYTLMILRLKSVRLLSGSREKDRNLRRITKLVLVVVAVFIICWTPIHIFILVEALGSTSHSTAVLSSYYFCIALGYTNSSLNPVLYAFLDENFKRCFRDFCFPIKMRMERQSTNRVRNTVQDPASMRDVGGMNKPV

Compound | Ki [1] | Ki [2] | Ki (Mu-type opioid receptor) | Ki (Nociceptin receptor)
CCC12CCN(CC3CC3)C(C(=O)c3ccc(O)cc31)C2C (centres undefined) [EKC] | 0.00246 µM | 0.00212 µM | 0.00193 µM | 
CC(C)C[C@H](NC(=O)[C@H](CCCCN)NC(=O)[C@H](CCCN=C(N)N)NC(=O)[C@H](C)NC(=O)[C@H](CO)NC(=O)[C@H](CCCCN)NC(=O)[C@H](CCCN=C(N)N)NC(=O)[C@H](C)NC(=O)CNC(=O)[C@@H](NC(=O)[C@H](Cc1ccccc1)NC(=O)CNC(=O)CNC(=O)[C@@H](N)Cc1ccccc1)[C@@H](C)O)C(=O)N[C@@H](C)C(=O)N[C@@H](CC(N)=O)C(=O)N[C@@H](CCC(N)=O)C(=O)O [OFQ 1-17] | > 10 µM | > 10 µM | > 10 µM | 
H-FSEFMRQYLVLSMQSSQ-OH [OFQ II 1-17] | > 10 µM | > 10 µM | > 10 µM | > 10 µM
H-FSEFMRQYLVLSMQSSQRRRTLHQNGNV-NH2 [NSC_0] | > 10 µM | > 10 µM | > 10 µM | > 10 µM
